The target of assay [1] is Prostaglandin G/H synthase 1 (Ovis aries) (UniProt P05979). The assay can be described thus: Inhibition of PGH synthase by measuring oxygen consumption with a Clark oxygen electrode at 100 uM. Set-up: scale not given: the % may be the effect or the level left.
Assay [2] has the same target. The assay can be described thus: Inhibition of PGH synthase was determined by measuring oxygen consumption with a Clark oxygen electrode at 25 uM. Also noted: scale not given: the % may be the effect or the level left.

Chain of Prostaglandin G/H synthase 1 (Ovis aries) (P05979 whole entry, looked up): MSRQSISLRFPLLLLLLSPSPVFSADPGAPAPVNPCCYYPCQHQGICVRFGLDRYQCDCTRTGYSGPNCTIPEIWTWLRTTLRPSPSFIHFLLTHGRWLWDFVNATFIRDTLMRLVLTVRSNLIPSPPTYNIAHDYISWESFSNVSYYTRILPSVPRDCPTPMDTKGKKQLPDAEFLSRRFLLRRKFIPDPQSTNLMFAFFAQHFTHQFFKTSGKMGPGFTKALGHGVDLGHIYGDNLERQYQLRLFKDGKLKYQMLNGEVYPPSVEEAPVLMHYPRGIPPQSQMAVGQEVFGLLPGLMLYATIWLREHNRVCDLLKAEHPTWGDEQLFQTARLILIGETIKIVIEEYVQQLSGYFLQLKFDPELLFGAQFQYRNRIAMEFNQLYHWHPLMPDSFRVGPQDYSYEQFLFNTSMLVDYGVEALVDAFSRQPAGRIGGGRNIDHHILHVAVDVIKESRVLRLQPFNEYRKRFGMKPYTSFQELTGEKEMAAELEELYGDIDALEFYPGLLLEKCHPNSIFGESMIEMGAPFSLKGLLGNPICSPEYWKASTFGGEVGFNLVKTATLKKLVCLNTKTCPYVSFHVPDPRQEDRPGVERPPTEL

Regarding `CC(=C1C(=O)N(c2ccccc2)N(c2ccccc2)C1=O)c1ccccc1`, the figures for the Control in assay [1] and in assay [2] were 31% and 73%, respectively. As for `CCCC=C1C(=O)N(c2ccccc2)N(c2ccccc2)C1=O`, the Control was found to be 18% in assay [1] and 29% in assay [2].

The compound `O=C(CBr)NCCC1C(=O)N(c2ccccc2)N(c2ccccc2)C1=O` gave a Control in assay [1] of 79%. Regarding `O=C(NCCC1C(=O)N(c2ccccc2)N(c2ccccc2)C1=O)Oc1ccccc1`, the Control in assay [1] is 42%; in assay [2], 78%.

Consider `O=C(CCl)NCCC1C(=O)N(c2ccccc2)N(c2ccccc2)C1=O`, for which the Control in assay [1] stood at 90%. Same read-out and setting: then `O=C1C(=C/C=C/c2ccccc2)C(=O)N(c2ccccc2)N1c1ccccc1`, with 96%. Turning to `O=C1C(CC#CCCl)C(=O)N(c2ccccc2)N1c1ccccc1`, the figures for the Control in assay [1] and in assay [2] were 10% and 35%, respectively.

Turning to `CC(C)(C#N)C1C(=O)N(c2ccccc2)N(c2ccccc2)C1=O`, the Control was determined as 5% in assay [1] and 23% in assay [2].

`CC(C)=C1C(=O)N(c2ccccc2)N(c2ccccc2)C1=O`: the Control in assay [1] stood at 63%; in assay [2], 89%. For the compound `CCC(C)=C1C(=O)N(c2ccccc2)N(c2ccccc2)C1=O`, the Control was 21% in assay [1] and 49% in assay [2].

(Values after ChEMBL document CHEMBL1123922.)
